Here are results for four compounds from patent US20240239781A1, “1H-PYRAZOLE DERIVATIVES AS SIGMA LIGANDS” (ACONDICIONAMIENTO TARRASENSE, priority 2021, published 2024).

In one experiment the target is T1, human σ1 receptor (Homo sapiens, UniProt Q99720).
T1 construct: expressed in transfected cells; host or cells: HEK-293
Description: Human σ1 receptor radioligand assay ([3H](+)-pentazocine, transfected HEK-293 membranes). Particulars: class scale, read-out: Binding σ-1 Ki. An outline of the steps: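 Membranes (7 μg) from transfected HEK-293 cells were incubated with 5 nM [3H](+)-pentazocine in 50 mM Tris-HCl, pH 8, for 120 minutes at 37° C, with 10 μM haloperidol defining non-specific binding. Bound radioactivity was filtered and counted by scintillation. Results are % inhibition at 1 or 10 μM or Ki from five concentrations.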

A further experiment has as its target T2, human σ2/TMEM97 receptor (Homo sapiens, UniProt Q5BJF2).
T2 construct: expressed in transfected cells; host or cells: HEK-293
Description: Binding assay to human σ2/TMEM97 receptor ([3H]-DTG, transfected HEK-293 membranes). Particulars: class scale, read-out: Binding σ-2 Ki. An outline of the steps: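 Membranes (15 μg) from transfected HEK-293 incubated 120 min at 25 °C with 10 nM [3H]-DTG in 50 mM Tris-HCl pH 8.0; nonspecific binding with 10 μM haloperidol. Filtration and scintillation counting; % inhibition at 1 or 10 μM, or Ki from five concentrations.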

Experiment [1] deals with mechanical hypersensitivity. The note with it: SNI mice model of neuropathic pain; cited from earlier work.
The target in another experiment is sigma-2 (σ2) site (Homo sapiens, UniProt Q5BJF2). The note with it: background statement; cited from earlier work.

By Ki is commonly meant a dissociation constant, usually derived from enzyme kinetics or from competition with a known ligand.

T1 sequence (Q99720 whole entry): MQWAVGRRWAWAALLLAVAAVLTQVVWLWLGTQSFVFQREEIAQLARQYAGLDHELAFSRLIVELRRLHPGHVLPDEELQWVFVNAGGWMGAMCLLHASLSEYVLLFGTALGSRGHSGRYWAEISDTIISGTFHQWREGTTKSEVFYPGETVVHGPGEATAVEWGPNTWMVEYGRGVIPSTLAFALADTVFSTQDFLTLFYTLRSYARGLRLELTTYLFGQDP
T2 sequence (Q5BJF2 whole entry): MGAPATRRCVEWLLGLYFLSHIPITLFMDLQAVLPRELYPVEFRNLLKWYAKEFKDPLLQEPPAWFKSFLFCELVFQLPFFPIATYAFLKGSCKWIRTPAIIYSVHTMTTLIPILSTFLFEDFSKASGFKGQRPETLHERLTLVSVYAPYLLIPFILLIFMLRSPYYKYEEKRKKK
sigma-2 (σ2) site, sequence (Q5BJF2 whole entry): as above

For the compound `Cc1cccc(-c2nn(C)c(Cl)c2CN2CC3(CCN(CCC(C)(C)C)CC3)CC2=O)n1` [Example 228, 2-((5-Chloro-1-methyl-3-(6-methylpyridin-2-yl)-1H-pyrazol-4-yl)methyl)-8-(3,3-dimethylbutyl)-2,8-diazaspiro[4.5]decan-3-one], the Ki on human σ1 receptor and on human σ2/TMEM97 receptor was 100 to 500 nM throughout.
As to `CCn1nc(-c2cccc(C(F)(F)F)n2)c(CN2CC3(CCN(CCC(C)(C)C)CC3)CC2=O)c1Cl` [Example 229, 2-((5-Chloro-1-ethyl-3-(6-(trifluoromethyl)pyridin-2-yl)-1H-pyrazol-4-yl)methyl)-8-(3,3-dimethylbutyl)-2,8-diazaspiro[4.5]decan-3-one], the Ki on human σ1 receptor and on human σ2/TMEM97 receptor was less than 100 nM each time.
Take `OCCCN1CCCC2CC1c1cc(-c3ccc(C(F)(F)F)cc3)ccc12` (stereo not drawn) [UKH-1114]: in experiment [1], the “effect on mechanical hypersensitivity” value was “relieved mechanical hypersensitivity”.
With (+)-SKF-10047, the “affinity for the sigma-2 (σ2) site” value on sigma-2 (σ2) site is reported as “micromolar affinity”.
